{
  "source": "patent US9956243B2",
  "about": "“Combination treatment for acute myeloid leukemia (AML)” (Hoffmann-La Roche Inc., priority 2013, dated 2018)",
  "key": {"[1]": {"system": "MOLM-13-luc.c4 (AML) human AML cells", "assay": "Antitumor efficacy and survival / increase in life span (ILS) in disseminated MOLM-13.luc.c4 AML model", "format": "in vivo, SCID beige mice", "details": "for tumor burden by BLI photon counts: 5 million cells, treatment from day 3, vs Vehicle-treated control mice (FIG. 1); for Median survival: vehicle control 20.5 days", "protocol": "(§1) Female SCID beige mice (10/group), obtained from Charles River Laboratories (Wilmington, Del.) were used when they were approximately 8-12 weeks old and weighed approximately 20-25 grams. The health of the mice was assessed daily by gross observation and analyses of blood samples taken from sentinel animals housed on shared shelf racks. All animals were allowed to acclimate and recover from any shipping-related stress for a minimum of 72 hours prior to experimental use. Autoclaved water and irradiated food (5058-ms Pico Lab mouse chow, Purina Mills, Richmond, Ind.) were provided ad libitum, and the animals were maintained on a 12 hour light and dark cycle. Cages, bedding and water bottles were autoclaved before use and changed weekly. All animal experiments were conducted in accordance with the Guide for the Care and Use of Laboratory Animals, local regulations, and protocols approved by the Roche Animal Care and Use Committee in an AAALAC accredited facility.\nParental MOLM-13 human AML cells were stably transfected with Luc2 lentiviral particles for 24 hrs in the presence of Polybrene (8 ug/ml) and then selected in the presence of Blasticidin for 3 weeks. Subsequently, one clone was selected by single cell plating in the presence of 0.1 mg/mL G418 and was designated MOLM-13.luc.c4. The lentiviral Luc2 expression plasmid was constructed by incorporating Luc2 gene (Promega) in to pLOC lentiviral plasmid backbone (Thermo Fisher Scientific). Luc2 lentiviral particles were prepared by using Trans-Lentiviral Packaging System (Thermo Fisher Scientific) as recommended.\nMOLM-13.luc.c4 was maintained with RPMI 1640 with L-glutamine (2 mM) media (GIBCO/Invitrogen, Carlsbad, Calif.) supplemented with 10% heat-inactivated Fetal Bovine Serum (HI-FBS; GIBCO/Invitrogen, Carlsbad, Calif.), and 1% 100 mM sodium pyruvate. Freshly dissociated MOLM13-Luc.c4 cells (1×106 or 5×106) suspended in Phosphate Buffered Saline (PBS) were then intravenously inoculated via the caudal tail vein into female SCID-beige mice.\nIt was then filtered thru a 0.22 micron filter into a septum sealed vial for intravenous administration. […] Stock cytarabine (Ara-C injection, 100 mg/ml) was diluted in sterile 0.9% sodium chloride to 44 mg/ml according to manufacturer's instructions and dosed at 200 mg/kg iv twice weekly.\nTreatment duration was 3 weeks.\n(§2) For increased life span (ILS) assessment, animal body weights were measured two to three times per week, and animals were monitored daily for any clinical signs of toxicity or excessive tumor burden (i.e. hind limb paralysis or morbidity). In addition, progression of disease was monitored by in vivo bioluminescent imaging (BLI) using IVIS® Spectrum system. For each BLI session, mice received 100 mg/kg D-luciferin (Caliper Life Sciences/Perkin-Elmer) via ip injections and were imaged at 20 min post luciferin injection at either a 5 s or a 10 s exposure time. Images were captured by the IVIS® Spectrum system and data were collected and analyzed with Living Image 4.2.0 software (Caliper Life Sciences, Hopkinton, Mass.). Total photon fluxes (ph/s) representing luciferase activity within each fixed region of interest (ROI) covering whole tumors of individual mice were determined. The actual images of mice are not disclosed herein.\nQuantification of bioluminescence allowed for direct longitudinal comparison of tumor burden between treatment groups prior to surrogate death end points being reached. Tumor burden was graphically represented as the mean BLI photon flux+standard error of the mean (SEM), and median survival was determined utilizing Kaplan Meier survival analysis. Statistical analysis of comparisons between groups was analyzed by two-way ANOVA, and post-hoc Bonferroni test (GraphPad Prism, version 4.3). Differences between groups were considered to be significant when the probability value (p) was ≤0.05."}, "[2]": {"details": "Ara-C 200 mg/kg 2x/week iv; 10 mice/group", "protocol": "as §1, with “Cages, bedding and water bottles were autoclaved before use and changed weekly. All animal experiments were conducted in accordance with the Guide for the Care and Use of Laboratory Animals, local regulations, and protocols approved by the Roche Animal Care and Use Committee in an AAALAC accredited facility.” left out\nas §2, with “For each BLI session, mice received 100 mg/kg D-luciferin (Caliper Life Sciences/Perkin-Elmer) via ip injections and were imaged at 20 min post luciferin injection at either a 5 s or a 10 s exposure time.” left out, “The actual images of mice are not disclosed herein.” left out"}},
  "data": [
    {"compound": "4-{[(2R,3S,4R,5S)-3-(3-Chloro-2-fluoro-phenyl)-4-(4-chloro-2-fluoro-phenyl)-4-cyano-5-(2,2-dimethyl-propyl)-pyrrolidine-2-carbonyl]amino}-3-methoxy-benzoic acid 1-mPEG-carbonyloxy-ethyl ester (mPEG, average MW, ˜2200) [compound I-B]", "values": [
      {"measurement": "tumor burden by BLI photon counts", "setting": "[1]", "result": "significantly reduced photon counts"},
      {"measurement": "% ILS vs. Vehicle control", "setting": "[1]; Cpd I-B 437 mg/kg q7d iv, p < 0.05 vs vehicle", "result": 37, "unit": "%"},
      {"measurement": "% ILS vs. Vehicle control", "setting": "[1]; Cpd I-B 437 mg/kg q7d iv, p < 0.05 vs vehicle, listed as Cpd I-B", "result": "*37%"},
      {"measurement": "Median survival", "setting": "[1]; Cpd I-B 437 mg/kg q7d iv", "result": 28, "unit": "days"}
    ]},
    {"compound": "Nc1ccn([C@@H]2O[C@H](CO)[C@@H](O)[C@@H]2O)c(=O)n1", "note": "[Ara-C, cytarabine]", "values": [
      {"measurement": "tumor burden by BLI photon counts", "setting": "[1]", "result": "no difference"},
      {"measurement": "% ILS vs. Vehicle control", "setting": "[1]; Ara-C 200 mg/kg 2x/wk iv", "result": 0, "unit": "%"},
      {"measurement": "Median survival", "setting": "[1]; Ara-C 200 mg/kg 2x/wk iv", "result": 20, "unit": "days"},
      {"measurement": "monotherapy antitumor activity as assessed by tumor burden (BLI) or ILS", "setting": "[1]", "result": "lack of monotherapy activity"},
      {"measurement": "monotherapy antitumor activity as assessed by tumor burden (BLI) or ILS", "setting": "[1]; listed as Cytarabine (Ara-C)", "result": "lack of antitumor activity"},
      {"measurement": "Mortality", "setting": "[2]", "result": 0}
    ]}
  ]
}
